Experimental data: PubChem BioAssay (NCI)
Values joined by “and” are separate entries in the source; they are usually repeats but may differ in a detail not shown here. Equal values may be shown once.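 Tested at 5 concentrations; 48 h exposure; 96-well plates; endpoints linearly interpolated, else capped at highest concentration. Here, GI50 denotes the concentration required for 50% inhibition of growth. TGI is the concentration that stops growth completely.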

Assays:
Experiment in all cases: NCI tumour cell line growth inhibition, 48 h
NCI-H23 lung = test system: NCI-H23 lung
NCI/ADR-RES ovarian = test system: NCI/ADR-RES ovarian
SK-OV-3 ovarian = test system: SK-OV-3 ovarian
HCC-2998 colon = test system: HCC-2998 colon
BT-549 breast = test system: BT-549 breast
SF-539 CNS = test system: SF-539 CNS
SK-MEL-2 melanoma = test system: SK-MEL-2 melanoma
U251 CNS = test system: U251 CNS
HOP-92 NSCLC = test system: HOP-92 NSCLC
SK-MEL-28 melanoma = test system: SK-MEL-28 melanoma

Row | Compound | GI50 (NCI-H23 lung) | TGI (NCI-H23 lung) | GI50 (NCI/ADR-RES ovarian) | TGI (NCI/ADR-RES ovarian) | GI50 (SK-OV-3 ovarian) | TGI (SK-OV-3 ovarian) | GI50 (HCC-2998 colon) | TGI (HCC-2998 colon) | GI50 (BT-549 breast) | TGI (BT-549 breast) | GI50 (SF-539 CNS) | TGI (SF-539 CNS) | GI50 (SK-MEL-2 melanoma) | TGI (SK-MEL-2 melanoma) | GI50 (U251 CNS) | TGI (U251 CNS) | GI50 (HOP-92 NSCLC) | TGI (HOP-92 NSCLC) | GI50 (SK-MEL-28 melanoma) | TGI (SK-MEL-28 melanoma)
1 | Cn1ncc(Cl)c1-c1cc(C(=O)N[C@H](CN)Cc2cccc(F)c2)sc1Cl | 2.45 µM and 8.12 µM | > 8.23 µM and 22 µM | 3.28 µM and 9.52 µM | > 7.74 µM and 23.5 µM | 0.242 µM and 0.34 µM | 4.58 µM and 7.05 µM | 0.743 µM and 1.54 µM | 2.67 µM and 4.87 µM | 0.518 µM and 1.33 µM | 3.35 µM and 7.5 µM | 0.313 µM and 0.325 µM | 3.22 µM and 4.64 µM | 1.98 µM and 4.65 µM | > 6.11 µM and 12.3 µM | 0.346 µM and 0.742 µM | > 4.58 µM and 12.8 µM | 0.338 µM and 0.519 µM | 2.77 µM and 4.21 µM | 1.43 µM and 1.7 µM | 4.85 µM and 9.04 µM
2 | CN(C)c1ccc(/C=N/NC(N)=S)nc1 | 2.39 µM | > 100 µM | 4.08 µM | > 100 µM | 4.5 µM | > 100 µM | 3.35 µM | > 100 µM | 4.39 µM | > 100 µM | 1.81 µM | > 100 µM | > 100 µM | > 100 µM | 3.99 µM | > 100 µM | > 100 µM | > 100 µM | 17.9 µM | > 100 µM
3 | CCSC[C@@H]1C[C@](O)(c2ccc(Cl)cc2)[C@@H](c2ccc(Cl)cc2)O1 | 19.3 µM | 41.6 µM | 20.5 µM | 43.6 µM | 22.4 µM | 60.2 µM | 20.3 µM | 39.3 µM | 15.2 µM | 28.9 µM | 16.5 µM | 31.1 µM | 16 µM | 35 µM | 18.3 µM | 36.2 µM | 20.9 µM | 36.9 µM | 16.2 µM | 32.8 µM
4 | COc1cnc2c(c1)C(=O)c1c-2n(CCCN2CCCC2)c(=O)c2cc([N+](=O)[O-])ccc12 | 0.0272 µM | 1.25 µM | 0.026 µM | 1.31 µM | 0.0336 µM | 0.843 µM | 0.157 µM | 2.53 µM | 0.354 µM | 16 µM | 0.0308 µM | 0.353 µM | 1.01 µM | 15.9 µM | 0.0113 µM | 1.03 µM | 0.554 µM | 15.6 µM | 10.6 µM | 27.9 µM
5 | Cc1cc2c(F)c(Oc3ncnc(Nc4ccc(N5C[C@@H](C)N[C@@H](C)C5)cc4)c3C#N)cc(F)c2[nH]1 | 2.44 µM | 11.3 µM | 3.85 µM | 20.9 µM | 3.91 µM | 13.7 µM | 1.97 µM | 4.14 µM | 0.816 µM | 2.38 µM | 1.53 µM | 2.94 µM | 2.2 µM | 4.67 µM | 1.72 µM | 4.47 µM | 2.07 µM | 8.85 µM | 1.96 µM | 3.7 µM
6 | COc1cc2nc(N3CCCN(C)CC3)nc(NC3CCN(Cc4ccccc4)CC3)c2cc1OC | 5.71 µM | 19.7 µM | 13.4 µM | 34.8 µM | 3.19 µM | 10.8 µM | 2.71 µM | 8.76 µM | 1.94 µM | 4.68 µM | 1.68 µM | 3.33 µM | 2.08 µM | 4.25 µM | 2.22 µM | 5.96 µM | 4.12 µM | 13.6 µM | 1.88 µM | 3.77 µM
7 | NC(=S)N/N=C/c1ccc(OC(=O)COc2cc(Cl)c(Cl)cc2Cl)cn1 | 3.26 µM | > 100 µM | 3.23 µM | > 100 µM | 8.49 µM | > 100 µM | 5.84 µM | > 100 µM | 3.92 µM | > 100 µM | 2.37 µM | 10.3 µM | 12.7 µM | > 100 µM | 3.52 µM | > 100 µM | 1.54 µM | 26.6 µM | 13.1 µM | > 100 µM
8 | CC(=O)O.CN1[CH-]N(Cc2ccc(C#N)cc2)c2ccccc21.[Ag+] | 20.8 µM | 58 µM | > 100 µM | > 100 µM | 24.4 µM | 63.5 µM | > 100 µM | > 100 µM | 18.8 µM | 38.4 µM | 43.7 µM | > 100 µM | > 100 µM | > 100 µM | 17.2 µM | 36.4 µM | 20.3 µM | 40.7 µM | 16.7 µM | 32.1 µM
